Like-named read-outs stand apart in the source and are kept apart here.

For one data set, the system named is ∆AKT1. Description: PH domain null AKT1 biochemical kinase assay (FP iMAP). On the procedure:
Biochemical analysis was performed using kinases obtained from Millipore (AKT1, ∆AKT1, ∆AKT2, ∆AKT3) and Signal Chem (AKT2 and AKT3). The specific activity of AKT 1,2 and 3 was determined to be 114 nmol/min/mg, 44 nmol/min/mg and 200 nmol/min/mg respectively as per activity assay protocol. ALM301 was profiled using the Fluorescent Polarisation (FP) iMAP Screening Express kit (Molecular Devices) using the FAM-Crosstide substrate [5FAM-[…]-OH] (Molecular Devices) against the three isoforms of AKT and their PH domain null mutants. Compounds were dissolved in DMSO prior to screening at 14 point titration series in the range (50 µM–50 pM). Fluorescence polarisation was measured using a Biotek Synergy 4 Hybrid microplate reader. Percentage inhibition of kinase activity was calculated and IC50 values derived using non-linear regression on GraphPad Prism. Competition of ALM301 with ATP was determined using AKT1 under increasing ATP concentrations up to 1000 µM.

Another data set deals with T1, AKT2 (Homo sapiens, UniProt P31751).
T1 construct: purchased Signal Chem
Kind of data set: SelectScreen kinase selectivity profiling, AKT2. The format is biochemical. As to conditions: read-out: % inhibition @ 10 µM, AKT2; 10 µM fixed concentration. On the procedure:
Off-target kinase activity was performed using the SelectScreen kinase profiling service against either mini 50 kinase or full 450 kinase panels using the Z’lyte and Adapta kinase activity platforms (performed by Thermofisher).

A further data set relates to pAKT in MCF-7 cells. Description: Western blot of pAKT and pGSK3β in MCF-7 cells. As to conditions: 1 µM, observed from 1 h after treatment. It is filed as cell-based. As to the method:
AKT inhibitor treated cell lysates were obtained using RIPA lysis buffer supplemented with protease and phosphatase inhibitor tablets (Roche). Protein samples (30 µg/lane) were run by SDS-PAGE and transferred to Hybond C extra nitrocellulose membranes (Amersham Biosciences) before incubation with the following primary antibodies; pAKT, total AKT, pGSK3β, total GSK3 β, p(Cell Signaling Technologies), Actin (Sigma) or Vinculin (Santa Cruz). Primary antibodies were diluted at 1:1000 (except Actin which was diluted 1:5000). Secondary antibodies were diluted 1:10,000. Blots were visualised using Amersham ECL plus western blot detection system (GE Healthcare) or Odyssey CLx system (LI-COR).
In general terms: Immunoblotting shows a protein as a band on a membrane.

In another data set the test system is MCF-7 xenografts. Kind of data set: Efficacy study in MCF-7 breast cancer xenograft model. The format is in vivo. Particulars: MCF-7 xenograft; for tumour regression: p.o. As to the method: For efficacy in MCF-7 xenografts, 150 SCID female mice aged 6–8 weeks and weighing approximately 18–22 g were implanted with 1 × 10^7 MCF-7 tumour cells (ATCC) subcutaneously in the right flank. […] Once mean tumour size reached approximately 150 mm^3, mice were randomised to either control or treatment groups (n = 10/group) using a randomised block approach. Groups sizes were devised based on past experience of the provider. […] Tumour size was measured twice weekly in two dimensions using a caliper, and the volume expressed in mm^3 using the formula: V = 0.5 (a x b^2), where a and b are the long and short diameters of the tumour, respectively.

A short description of data set [1]: In vitro microsomal stability, rat. As to conditions: pH 7.4; rat liver microsomes; read-out: rat LM CLint. It is filed as in vitro ADME. As to the method:
(§1) Compounds (final concentration = 1 µM; final DMSO concentration = 0.1%) were incubated in 0.1 M phosphate buffer at pH 7.4 with liver microsomes (human, mouse, rat or dog; 0.5 mg of protein/mL) at 37 °C. Reactions were started by addition of NADPH in 0.1 M phosphate buffer pH 7.4 (final concentration 1 mM). Reactions were quenched by addition of ice-cold methanol and frozen. The supernatants were analysed by LC/MS/MS on a Waters Acquity I-Class coupled to a Waters Xevo TQD mass spectrometer. A Waters BEH C18 2.1 × 50 mm 1.7 µm column was used and mobile phases consisted of water and methanol containing 0.1% formic acid as modifier. Analysis was by multiple reaction monitoring and conditions were optimised for each test compound.
Background: Liver microsomes are a subcellular fraction often used to study metabolism.

In the next data set the test system is MCF-7 cells. Kind of data set: Cell cycle flow cytometry. It is filed as cell-based. On the procedure: MCF-7 breast cancer cells were treated with increasing concentrations of ALM301 (0.1–100 µM) for 72 h. Post treatment, media containing detached cells was collected for each sample and the remaining adherent cells detached using 0.1% EDTA in PBS. Resulting cell suspensions were incorporated with associated media, centrifuged to form a pellet, washed with 1% FCS in PBS and fixed using ice-cold ethanol. Samples were stored at 4 °C for 24 h before staining with propidium iodide (10 µg/mL) (Sigma) containing 2.5 mg/mL RNase A (Qiagen) for 30 min at 37 °C and stored overnight at 4 °C before analysis. A minimum of 10,000 cells per sample were analysed for DNA content using a FACSCalibur flow cytometer and CellQuest Pro software (Becton Dickinson).
(Flow cytometry measures light scatter and fluorescence of single cells or particles in a stream.)

In the next data set the target is T2, AKT1 (Homo sapiens, UniProt P31749).
T2 construct: purchased Millipore
Kind of data set: AKT1 biochemical kinase assay (FP iMAP). On the procedure:
Biochemical analysis was performed using kinases obtained from Millipore (AKT1, ∆AKT1, ∆AKT2, ∆AKT3) and Signal Chem (AKT2 and AKT3). […] (Molecular Devices) against the three isoforms of AKT and their PH domain null mutants. Compounds were dissolved in DMSO prior to screening at 14 point titration series in the range (50 µM–50 pM). Fluorescence polarisation was measured using a Biotek Synergy 4 Hybrid microplate reader. Percentage inhibition of kinase activity was calculated and IC50 values derived using non-linear regression on GraphPad Prism. Competition of ALM301 with ATP was determined using AKT1 under increasing ATP concentrations up to 1000 µM.

In a further data set the test system is normal cell lines. Kind of data set: In vitro proliferation assay (CellTiter-Glo), normal cell lines. The format is cell-based. As to conditions: normal cell lines, 72 h; read-out: anti-proliferative IC50, normal cells. On the procedure: MCF-7, T47D, NCI-H460, HCT116, LNCaP, A431, PC3, PANC-1, A549, HT29M, SKOV-3, Du145, HMEC-1, Hs888Lu, Hela, MDA-MB-231 and SW480 cells were obtained from American Type Culture Collection (ATCC). A2780, PNT2, U251MG, HFFF2 and Fr2 cells were obtained from Public Health England European Collection of Authenticated Cell Cultures (Phe ECACC). InMyoFib and NHLF cells were acquired from Lonza. Cells were then incubated with increasing concentration of inhibitor (1 nM to 100 µM) for 72 h at 37 °C. Cell viability was determined using the CellTiter-Glo Luminescent Cell Viability Assay (Promega). IC50 values were derived as previously stated.

Data set [2] can be described thus: In vitro microsomal stability, mouse. The format is in vitro ADME. As to conditions: pH 7.4; mouse liver microsomes; read-out: mouse LM CLint. As to the method:
as §1

T2 sequence (P31749 whole entry): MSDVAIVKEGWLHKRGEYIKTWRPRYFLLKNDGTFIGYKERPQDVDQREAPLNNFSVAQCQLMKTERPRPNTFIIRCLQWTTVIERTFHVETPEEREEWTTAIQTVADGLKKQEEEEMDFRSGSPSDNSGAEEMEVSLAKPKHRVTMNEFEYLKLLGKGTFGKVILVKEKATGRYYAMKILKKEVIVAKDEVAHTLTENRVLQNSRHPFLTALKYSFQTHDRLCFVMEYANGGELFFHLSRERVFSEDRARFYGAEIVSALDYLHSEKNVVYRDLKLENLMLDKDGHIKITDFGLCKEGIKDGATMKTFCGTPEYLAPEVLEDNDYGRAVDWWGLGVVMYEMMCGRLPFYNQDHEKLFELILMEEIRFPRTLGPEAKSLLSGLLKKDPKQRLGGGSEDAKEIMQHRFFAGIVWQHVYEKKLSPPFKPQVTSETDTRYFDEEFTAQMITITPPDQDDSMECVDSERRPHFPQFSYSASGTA
T1 sequence (P31751 whole entry): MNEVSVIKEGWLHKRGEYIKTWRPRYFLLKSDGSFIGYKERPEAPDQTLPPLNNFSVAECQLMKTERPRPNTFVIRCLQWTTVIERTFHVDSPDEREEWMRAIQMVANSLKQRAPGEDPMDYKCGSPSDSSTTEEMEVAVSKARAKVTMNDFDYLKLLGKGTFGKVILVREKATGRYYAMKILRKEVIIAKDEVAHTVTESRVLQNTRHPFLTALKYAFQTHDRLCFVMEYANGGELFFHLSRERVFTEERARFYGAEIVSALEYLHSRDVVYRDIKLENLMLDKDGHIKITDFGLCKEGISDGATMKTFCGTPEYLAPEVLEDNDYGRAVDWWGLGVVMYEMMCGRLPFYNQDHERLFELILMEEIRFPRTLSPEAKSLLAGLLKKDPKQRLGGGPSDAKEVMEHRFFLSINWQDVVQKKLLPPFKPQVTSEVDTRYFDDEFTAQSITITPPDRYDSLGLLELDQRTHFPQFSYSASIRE

As a reminder, the inhibition is the relative decrease from the control value, in per cent. One may read the IC50 as the concentration needed to halve the response being measured. Consider `CCN1C(=O)COc2nc(-c3ccc([C@]4(N)C[C@@H](O)C4)cc3)c(-c3ccccc3)cc21` [ALM301, 6-(4-((1S,3S)-1-amino-3-hydroxycyclobutyl)phenyl)-1-ethyl-7-phenyl-1H-pyrido[2,3-b][1,4]oxazin-2(3H)-one], for which the “inhibition of truncated AKT1 lacking PH domain” value with ∆AKT1 was “not inhibited”. At AKT2, the inhibition at 10 µM came to 89%. For the same molecule, the “inhibition of AKT phosphorylation (western blot)” value in the data set on pAKT in MCF-7 cells is given as “sustained up to 48 h”. For the same molecule, the tumour regression with MCF-7 xenografts (ALM301 3 mg/kg q.d. in combination with tamoxifen 5 mg/kg q.d.) is 57%; in the data set on MCF-7 xenografts (ALM301 10 mg/kg q.d. in combination with tamoxifen 5 mg/kg q.d.) it was 50%. Also, in the data set on MCF-7 xenografts (monotherapy and in combination with tamoxifen, any dose levels), the “tolerability / animal body weight” value is on record as “no significant effects on animal body weight”. For the same molecule, the “tumour growth inhibition, single agent” value with MCF-7 xenografts (p.o. 3 or 10 mg/kg once-a-day) is listed as “minimal tumour growth inhibition”. Further, the microsomal CLint at 1 µM in [1] worked out at 3 µL/min/mg; in [2], 6 µL/min/mg. Also, the “sub-G0 population (cell-cycle analysis)” value in the data set on MCF-7 cells (MCF-7, 0.1–100 µM, 72 h) was “increase of sub-G0 population in a concentration dependent manner”. Besides, the “increase in sub-G0 population compared to ALM301 alone” value in the data set on MCF-7 cells (MCF-7, ALM301 in combination with tamoxifen) was found to be 4.5 ×. The IC50 at AKT1 (ATP concentration 150 µM, read-out: IC50 vs. AKT1) was 0.121 µM; on AKT1 (ATP concentration 500 µM, read-out: IC50 vs. AKT1) it was 0.157 µM; at AKT1 (ATP concentration 1000 µM, read-out: IC50 vs. AKT1) it was 0.11 µM; on AKT1 (full length AKT1, read-out: IC50 full length AKT1), 0.125 µM; at AKT1 (read-out: AKT IC50, AKT1) it was 0.13 µM; with normal cell lines it was over 20 µM.

These data come from paper PMC9489722, “Identification and development of a subtype-selective allosteric AKT inhibitor suitable for clinical development” (Scientific Reports, 2022).
